What was measured:
[1] = tested on: cultured human mast cells (CHMC); assay: CHMC high cell density IgE activation: tryptase; type: cell-based
Method: (§1) After sensitizing, cells are counted, pelleted (1000 rpm, 5-10 minutes), and resuspended at 1-2 ×10^6 cells/ml in MT buffer. Add 100 ul of cell suspension to each well and 100 ul of compound dilutions. The final vehicle concentration is 0.5% DMSO. Incubate at 37° C. (5% CO2) for 1 hour. After 1 hour of compound treatment, stimulate cells with 6× anti-IgE. Mix wells with the cells and allow plates to incubate at 37° C. (5% CO2) for one hour. After 1 hour incubation, pellet cells (10 minutes, 1000 RPM) and collect 200 ul per well of the supernatant, being careful not to disturb pellet. Place the supernatant plate on ice. During the 7-hour step (see next) perform tryptase assay on supernatant that had been diluted 1:500. Resuspend cell pellet in 240 ul of CM media containing 0.5% DMSO and corresponding concentration of compound. Incubate CHMC cells for 7 hours at 37° C. (5% CO2). After incubation, pellet cells (1000 RPM, 10 minutes) and collect 225 ul per well and place in −80° C. until ready to perform ELISAS. ELISAS are performed on appropriately diluted samples (determined empirically for each donor cell population so that the sample measurement falls within the standard curve) following the supplier's instructions.

[2] = tested on: cultured human mast cells (CHMC); assay: CHMC low cell density IgE activation: tryptase assay; type: cell-based; conditions: Low Density CHMC, anti-IgE activation, tryptase release; read-out: CHMC anti-IgE Tryptase IC50
Procedure, shortened: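 Supernatant tryptase activity, assayed with substrate for 30 min at room temperature, served as the degranulation measure. Mast cells (1000-1500 per well depending on donor) sat 1 hr at 37° C in MT before a 30 min anti-IgE challenge at 37° C.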

[3] = tested on: cultured human mast cells (CHMC); assay: CHMC low cell density ionomycin activation: tryptase assay; type: cell-based; conditions: Low Density CHMC, ionomycin activation, tryptase release; read-out: CHMC Ionomycin Tryptase IC50
[4] = tested on: cultured human mast cells (CHMC); assay: CHMC high cell density IgE activation: hexos; type: cell-based
Method: as §1
Add 50 uL of BMMC cell supernatant (see above) to the hexoseaminidase substrate, place at 37° C. for 30 minutes and read the plate at 5, 10, 15, and 30 minutes on a spectrophotometer.

[5] = tested on: cultured human mast cells (CHMC); assay: CHMC high cell density IgE activation: TNFalpha; type: cell-based; conditions: read-out: CHMC high density TNF-alpha
Method: as §1

[6] = tested on: Human Jurkat T-cells (clone N); assay: Jurkat T-cell activation (anti-TCR, CD69 upregulation); type: cell-based
Procedure, shortened: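 Readout is CD69 upregulation by flow cytometry (anti-CD69-APC, 20 min at 4 °C) after 20 h anti-TCR (C305, 500 ng/ml) stimulation at 37 °C.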

[7] = tested on: cultured human mast cells (CHMC); assay: CHMC high cell density IgE activation: LTC4; type: cell-based
Method: as §1

[8] = tested on: cultured human mast cells (CHMC); assay: CHMC high cell density IgE activation: histamine; type: cell-based
Method: as §1

[9] = tested on: Jurkat cells; assay: Jurkat toxicity, Cell Titer Glo assay; type: cell-based, human
Method: Seed 50 μl cells (1×10^6/ml) into each well containing 50 μl compound. […] Shake plates for 1 minute to mix cells and compound. Incubate plates at 37° C. […] Next day, harvest 50 μl cells from each well, add to 50 μl Cell Titer Glo reagent ([…]). Shake plates for 1 minute. Read on luminometer.

[10] = tested on: cultured human mast cells (CHMC); assay: CHMC low cell density IgE activation: LTC4 assay; type: cell-based; conditions: anti-IgE activation, LTC4 release
Method: Pellet CHMC cells (980 rpm, 10 min) and resuspend in pre-warmed MT. Add 65 ul of cells to each 96-well plate. Depending on the degranulation activity for each particular CHMC donor, load 1000-1500 cells/well. Mix four times followed by a 1 hr incubation at 37° C. […] Stimulate cells by adding 25 ul of 6× anti-IgE solution to the appropriate plates. Add 25 ul MT to un-stimulated control wells. Mix twice following addition of the anti-IgE. Incubate at 37° C. for 30 minutes. […] Spin plates at 1000 rpm for 10 min to pellet cells. Transfer 25 ul of supernatant to a 96-well black bottom plate and add 100 ul of freshly diluted tryptase substrate solution to each well. Incubate plates at room temperature for 30 min.
Leukotriene C4 (LTC4) is also quantified using an ELISA kit on appropriately diluted supernatant samples (determined empirically for each donor cell population so that the sample measurement falls within the standard curve) following the supplier's instructions.

CNC(=O)c1cc2cc(Nc3ncc(F)c(Nc4cccc(O)c4)n3)ccc2o1 [Compound R926493]
IC50 [1]: 1090 nM
IC50 [2]: 250 nM
IC50 [3]: 9.18 µM
IC50 [4]: 889 nM
IC50 [5]: > 2000 nM
IC50 [6]: 3.52 µM
IC50 [7]: 474 nM
IC50 [8]: 1320 nM
IC50 [9]: > 4.33 µM
IC50 [10]: 78 nM

Source: patent US8158621B2, “Methods of treating or preventing autoimmune diseases with 2,4-pyrimidinediamine compounds” (Rigel Pharmaceuticals, Inc., priority 2002, dated 2012)
